Patent US20080274522A1, “METHOD FOR THE PRODUCTION OF 2-BUTANONE” (priority 2007, published 2008)
Like-named read-outs stand apart in the source and are kept apart here.

Assays:
[1] = test system: L. plantarum (strain PN0512); details: for % Survival at 37° C. / % Survival at 23° C. / % Survival at 0° C.: 1 h; for Concentration at which L. plantarum PN0512 cells were killed: one hour
Experimental: (§1) Using overnight cultures or cells from plates, 30 mL cultures of the microorganisms to be tested were started in the following culture media: • E. coli—Miller's LB medium (Teknova, Half Moon Bay, Calif.): • L. plantarum PN0512—Lactobacilli MRS Broth (BD Diagnostic Systems, Sparks, Md.). The E. coli and L. plantarum cultures were grown at 37° C. aerobically with shaking until the cultures were in log phase and the OD600 was between 0.6 and 0.8. A 50 μL aliquot of each culture was removed for a time zero sample. The remainder of the cultures was divided into six 5 mL portions and placed in six small incubation flasks or tubes. […] The flasks or tubes were incubated at a desired temperature, aerobically without shaking for 1 h. After the incubation with one of the butanols, 2 μL from each of the flasks (and in addition 2 μL of the time zero sample of the culture before exposure to one of the butanols) were pipetted into the “head” wells of a 96 well (8×12) microtiter plate, each containing 198 μL of LB medium to give a 10^−2 dilution of the culture. Subsequently, 10^−3, 10^−4, 10^−5, and 10^−6 serial dilutions of the cultures were prepared as follows. The 10^−3 dilution was prepared by pipetting 20 μL of the sample from the head well into the 180 μL LB medium in the next well using a multi-channel pipette. This procedure was repeated 3 more times on successive wells to prepare the 10^−4, 10^−5, and 10^−6 dilutions. After each liquid transfer, the solution in the well was mixed by pipetting it up and down 10 times with the multi-channel pipetor. A 5 μL aliquot of each dilution was spotted onto an LB plate using a multi-channel pipette starting with the 10^−6 dilution, then the 10^−5, and so on working from more to less dilute without a change of tips. The spots were allowed to soak into the agar by leaving the lid of the plate slightly open for 15 to 30 min in a sterile transfer hood. The plates were covered, inverted, and incubated overnight at 37° C. The following day, the number of colonies in the spots were counted from the different dilutions. The number of living cells/mL in each of the original culture solutions from which the 2 μL was withdrawn was calculated and compared to the number of cells in the control untreated culture to determine the % of the cells surviving.

[2] = test system: E. coli (strain MG1655); details: for % Survival at 30° C. / % Survival at 37° C. / % Survival at 0° C.: 1 h; for Concentration at which E. coli cells were killed: one hour
Experimental: as §1

[3] = test system: Lactobacillus plantarum PN0512; test: Growth of L. plantarum PN0512 in the presence of butanols at different temperatures (OD600); format: cell-based; set-up: key to Growth of L. plantarum PN0512 in the presence of 1-butanol / Growth of L. plantarum PN0512 in the presence of isobutanol / Growth of L. plantarum PN0512 in the presence of 2-butanol: +: growth observed as an increase in OD600.; −: no growth observed, i.e. no change in OD600
Experimental: Tolerance levels of bacterial strain Lactobacillus plantarum PN0512 (ATCC # PTA-7727) were determined at 25° C., 30° C. and 37° C. as follows. The strain was cultured in S30L medium (i.e., 10 mM ammonium sulfate, 5 mM potassium phosphate buffer, pH 7.0, 50 mM MOPS, pH 7.0, 2 mM MgCl2, 0.7 mM CaCl2, 50 μM MnCl2, 1 μM FeCl3, 1 μM ZnCl2, 1.72 μM CuCl2, 2.53 μM COCl2, 2.42 μM Na2MoO4, 2 μM thiamine hydrochloride, 10 mM glucose, and 0.2% yeast extract). An overnight culture in the absence of any test compound was started in 15 mL of the S30L medium in a 150 mL flask, with incubation at 37° C. in a shaking water bath. The next morning, the overnight culture was diluted into three 500 mL flasks containing 150 mL of fresh medium to an initial OD600 of about 0.08. Each flask was incubated in a shaking water bath, one each at 25° C., 30° C. and 37° C. Each large culture was allowed to acclimate at the test temperature for at least 0.5 h. […] Growth was followed by measuring OD600 for six hours after addition of the compounds.

1-butanol
0%: % Survival at 37° C. ([1]; 1-butanol 3 % v/v) | % Survival at 23° C. ([1]; 1-butanol 4 % v/v) | % Survival at 0° C. ([1]; 1-butanol 5 % v/v) | % Survival at 0° C. ([1]; 1-butanol 5.5 % v/v) | % Survival at 37° C. ([2]; 1-butanol 2 % v/v) | % Survival at 30° C. ([2]; 1-butanol 3 % v/v) | % Survival at 37° C. ([2]; 1-butanol 3 % v/v) | % Survival at 37° C. ([2]; 1-butanol […] v/v)
58%: % Survival at 37° C. ([1]; 1-butanol 1.5 % v/v)
3.5 % v/v: Concentration at which L. plantarum PN0512 cells were killed ([1]; 23° C.)
2.4%: Concentration in which growth was not observed ([3]; 37° C.)
2.3%: Concentration in which growth was observed ([3]; 37° C.)
−^2: Growth of L. plantarum PN0512 in the presence of 1-butanol ([3]; 2.4 % w/v, 37° C.)
20%: % Survival at 37° C. ([2]; 1-butanol 1.5 % v/v)
−: Growth of L. plantarum PN0512 in the presence of 1-butanol ([3]; 2.7 % w/v, 37° C.) | Growth of L. plantarum PN0512 in the presence of 1-butanol ([3]; 2.9 % w/v, 30° C.) | Growth of L. plantarum PN0512 in the presence of 1-butanol ([3]; 2.9 % w/v, 37° C.) | Growth of L. plantarum PN0512 in the presence of 1-butanol ([3]; 3.1 % w/v, 30° C.) | Growth of L. plantarum PN0512 in the presence of 1-butanol ([3]; 3.1 % w/v, 37° C.) | Growth of L. plantarum PN0512 in the presence of 1-butanol ([3]; 3.2 % w/v, 25° C.) | Growth of L. plantarum PN0512 in the presence of 1-butanol ([3]; 3.2 % w/v, 30° C.) | Growth of L. plantarum PN0512 in the presence of 1-butanol ([3]; 3.3 % w/v, 25° C.) | Growth of L. plantarum PN0512 in the presence of 1-butanol ([3]; 3.4 % w/v, 25° C.) | Growth of L. plantarum PN0512 in the presence of 1-butanol ([3]; 3.4 % w/v, 30° C.) | Growth of L. plantarum PN0512 in the presence of 1-butanol ([3]; […] w/v, 37° C.)
82%: % Survival at 23° C. ([1]; 1-butanol 3 % v/v)
≤ 4.5 % v/v: Concentration with no toxic effect on L. plantarum PN0512 cells ([1]; 0° C., one hour treatment) | Concentration with no toxic effect on E. coli cells ([2]; 0° C., one hour treatment)
3.1%: Concentration in which growth was observed ([3]; 25° C.)
2.7%: Concentration in which growth was observed ([3]; 30° C.)
80%: % Survival at 37° C. ([1]; 1-butanol 1 % v/v)
29%: % Survival at 37° C. ([1]; 1-butanol 2 % v/v)
72%: % Survival at 37° C. ([2]; 1-butanol 1 % v/v)
2.5 % v/v: Concentration at which L. plantarum PN0512 cells were killed ([1]; 37° C.)
100%: % Survival at 23° C. ([1]; 1-butanol 2 % v/v) | % Survival at 0° C. ([1]; 1-butanol 3 % v/v) | % Survival at 0° C. ([1]; 1-butanol 4 % v/v) | % Survival at 0° C. ([1]; 1-butanol […] v/v) | % Survival at 30° C. ([2]; 1-butanol 1 % v/v) | % Survival at 30° C. ([2]; 1-butanol 1.5 % v/v) | % Survival at 30° C. ([2]; 1-butanol 2 % v/v) | % Survival at 0° C. ([2]; 1-butanol 3 % v/v) | % Survival at 0° C. ([2]; 1-butanol 4 % v/v) | % Survival at 0° C. ([2]; 1-butanol […] v/v)
2 % v/v: Concentration at which E. coli cells were killed ([2]; 37° C.)
+: Growth of L. plantarum PN0512 in the presence of 1-butanol ([3]; 1.0 % w/v, 37° C.) | Growth of L. plantarum PN0512 in the presence of 1-butanol ([3]; 1.2 % w/v, 37° C.) | Growth of L. plantarum PN0512 in the presence of 1-butanol ([3]; 1.4 % w/v, 37° C.) | Growth of L. plantarum PN0512 in the presence of 1-butanol ([3]; 1.5 % w/v, 25° C.) | Growth of L. plantarum PN0512 in the presence of 1-butanol ([3]; 1.5 % w/v, 30° C.) | Growth of L. plantarum PN0512 in the presence of 1-butanol ([3]; 1.5 % w/v, 37° C.) | Growth of L. plantarum PN0512 in the presence of 1-butanol ([3]; 1.6 % w/v, 37° C.) | Growth of L. plantarum PN0512 in the presence of 1-butanol ([3]; 1.8 % w/v, 37° C.) | Growth of L. plantarum PN0512 in the presence of 1-butanol ([3]; 2.0 % w/v, 25° C.) | Growth of L. plantarum PN0512 in the presence of 1-butanol ([3]; 2.0 % w/v, 30° C.) | Growth of L. plantarum PN0512 in the presence of 1-butanol ([3]; 2.0 % w/v, 37° C.) | Growth of L. plantarum PN0512 in the presence of 1-butanol ([3]; 2.1 % w/v, 37° C.) | Growth of L. plantarum PN0512 in the presence of 1-butanol ([3]; 2.2 % w/v, 37° C.) | Growth of L. plantarum PN0512 in the presence of 1-butanol ([3]; 2.3 % w/v, 37° C.) | Growth of L. plantarum PN0512 in the presence of 1-butanol ([3]; 2.4 % w/v, 25° C.) | Growth of L. plantarum PN0512 in the presence of 1-butanol ([3]; 2.4 % w/v, 30° C.) | Growth of L. plantarum PN0512 in the presence of 1-butanol ([3]; 2.7 % w/v, 30° C.) | Growth of L. plantarum PN0512 in the presence of 1-butanol ([3]; 2.9 % w/v, 25° C.) | Growth of L. plantarum PN0512 in the presence of 1-butanol ([3]; 3.1 % w/v, 25° C.)
2.9%: Concentration in which growth was not observed ([3]; 30° C.)
3 % v/v: Concentration at which E. coli cells were killed ([2]; 30° C.)
